From patent US11116218B2, “Isoxazole compound or a salt thereof” (OAT AGRIO CO., LTD., priority 2017, dated 2021)

How the values were obtained:
two-spotted spider mites [1] = assay: Miticidal test on two-spotted spider mite (leaf spray); assay type: in vivo; details: Tetranychus urticae, in Phaseolus vulgaris, 48 h, read-out: Mortality of mites (%)
Description: A piece of non-woven fabric (4.5×5.5 cm) was suspended inside a plastic cup through an incision made in the lid of the plastic cup. After water was poured into the cup, the cup was covered with the lid. A kidney bean leaf (about 3.5×4.5 cm) was then placed on the sufficiently soaked, non-woven fabric. Another kidney bean leaf with two-spotted spider mites (about 30 mite samples) was placed on top of the first leaf, and the fabric and leaves were placed in a thermostatic chamber having a temperature of 25±2° C. and a humidity of 40% overnight. Next morning the top leaf was removed as the mite population had already moved to the lower leaf.
Miticidal formulations containing the compound of the invention (100 ppm and 5 ppm) were prepared by adding an aqueous solution (100 ppm) of Sorpol 355 (manufactured by Tobo Kagaku Co., Ltd.) to a methanol solution of the compound of the invention. These miticidal formulations were sprayed onto the leaves, and the leaves were air-dried and placed in a thermostatic chamber (25±2° C. and a humidity of 50%). The mortality rate of the two-spotted spider mites was calculated after 2 days.

two-spotted spider mites [2] = assay: Ovicidal test on two-spotted spider mites; assay type: in vivo, two-spotted spider mite; details: Tetranychus urticae, 144 h; 10 ppm spray, ovicidal rate 6 days after spraying
Procedure: A piece of non-woven fabric (4.5×5.5 cm) was suspended inside a plastic cup through an incision made in the lid of the plastic cup. After water was poured into the cup, the cup was covered with the lid. A kidney bean leaf (about 3.5×4.5 cm) was then placed on the sufficiently soaked, non-woven fabric. Twenty female adults of two-spotted spider mite were placed on the top of the leaf, and the fabric and leaf were placed in a thermostatic chamber having a temperature of 25±2° C. and a humidity of 40% and 16L8D. The next day, after the number of the female adults was adjusted once more to 20, 2 mL of a miticidal formulation containing the compound of the invention (10 ppm) prepared in the same manner as in test example 1 was sprayed onto the leaf, and the leaf was air-dried and placed in a thermostatic chamber (25±2° C. and a humidity of 50%). The ovicidal rate of the two-spotted spider mites was calculated 6 days after the spraying of the miticidal formulation.

| SMILES | mortality at 5 ppm (two-spotted spider mites [1]) [%] | mortality at 100 ppm (two-spotted spider mites [1]) [%] | inhibition at 10 ppm (two-spotted spider mites [2]) [%] |
| --- | --- | --- | --- |
| Cc1cc(F)c(-c2cc(C(F)(F)F)on2)cc1SCC(F)(F)F [Compound 1, 3-(2-fluoro-4-methyl-5-((2,2,2-trifluoroethyl)thio)phenyl)-5-(trifluoromethyl)isoxazole] | 30 | 100 |  |
| Cc1cc(F)c(-c2cc(C(F)(F)F)on2)cc1[S+]([O-])CC(F)(F)F (stereo not drawn) [Compound 2, 3-(2-fluoro-4-methyl-5-((2,2,2-trifluoroethyl)sulfinyl)phenyl)-5-(trifluoromethyl)isoxazole] | 100 | 100 | 100 |
| Cc1cc(F)c(-c2cc(C(F)(F)C(F)(F)F)on2)cc1[S+]([O-])CC(F)(F)F (stereo not drawn) [Compound 5, 3-(2-fluoro-4-methyl-5-((2,2,2-trifluoroethyl)sulfinyl)phenyl)-5-(perfluoroethyl)isoxazole] | 95 | 100 | 90 |
| Cc1cc(F)c(-c2cc(C(F)(F)C(F)(F)C(F)(F)F)on2)cc1[S+]([O-])CC(F)(F)F (stereo not drawn) [Compound 8, 3-(2-fluoro-4-methyl-5-((2,2,2-trifluoroethyl)sulfinyl)phenyl)-5-(heptafluoropropyl)isoxazole] | 100 | 100 | 90 |
| Cc1cc(F)c(-c2cc(C(F)F)on2)cc1SCC(F)(F)F [Compound 13, 5-(difluoromethyl)-3-(2-fluoro-4-methyl-5-((2,2,2-trifluoroethyl)thio)phenyl)isoxazole] | 48 | 100 | 98 |
| Cc1cc(F)c(-c2cc(C(F)F)on2)cc1[S+]([O-])CC(F)(F)F (stereo not drawn) [Compound 14, 5-(difluoromethyl)-3-(2-fluoro-4-methyl-5-((2,2,2-trifluoroethyl)sulfinyl)phenyl)isoxazole] | 40 | 100 | 50 |
| Cc1cc(F)c(-c2cc(C(F)(F)Cl)on2)cc1[S+]([O-])CC(F)(F)F (stereo not drawn) [Compound 17, 5-(chlorodifluoromethyl)-3-(2-fluoro-4-methyl-5-((2,2,2-trifluoroethyl)sulfinyl)phenyl)isoxazole] | 98 | 100 | 100 |
| Cc1cc(F)c(-c2cc(C(F)(F)c3ccccc3)on2)cc1SCC(F)(F)F [Compound 19, 5-(difluoro(phenyl)methyl)-3-(2-fluoro-4-methyl-5-((2,2,2-trifluoroethyl)thio)phenyl)isoxazole] | 100 | 100 | 100 |
| Cc1cc(F)c(-c2cc(C(F)(F)c3ccccc3)on2)cc1[S+]([O-])CC(F)(F)F (stereo not drawn) [Compound 20, 5-(difluoro(phenyl)methyl)-3-(2-fluoro-4-methyl-5-((2,2,2-trifluoroethyl)sulfinyl)phenyl)isoxazole] | 93 | 100 | 95 |
| Cc1cc(Cl)c(-c2cc(C(F)(F)F)on2)cc1SCC(F)(F)F [Compound 22, 3-(2-chloro-4-methyl-5-((2,2,2-trifluoroethyl)thio)phenyl)-5-(trifluoromethyl)isoxazole] | 73 | 100 |  |
| Cc1cc(Cl)c(-c2cc(C(F)(F)F)on2)cc1[S+]([O-])CC(F)(F)F (stereo not drawn) [Compound 23, 3-(2-chloro-4-methyl-5-((2,2,2-trifluoroethyl)sulfinyl)phenyl)-5-(trifluoromethyl)isoxazole] | 100 | 100 | 100 |
| Cc1cc(C)c(-c2cc(C(F)(F)F)on2)cc1SCC(F)(F)F [Compound 25, 3-(2,4-dimethyl-5-((2,2,2-trifluoroethyl)thio)phenyl)-5-(trifluoromethyl)isoxazole] | 10 | 100 |  |
| Cc1cc(C)c([S+]([O-])CC(F)(F)F)cc1-c1cc(C(F)(F)F)on1 (stereo not drawn) [Compound 26, 3-(2,4-dimethyl-5-((2,2,2-trifluoroethyl)sulfinyl)phenyl)-5-(trifluoromethyl)isoxazole] | 98 | 100 | 90 |
| CCC[S+]([O-])c1cc(-c2cc(C(F)(F)F)on2)c(F)cc1C (stereo not drawn) [Compound 35, 3-(2-fluoro-4-methyl-5-(propylsulfinyl)phenyl)-5-(trifluoromethyl)isoxazole] | 100 | 100 | 100 |
| Cc1cc(F)c(-c2noc(C(F)(F)F)c2C)cc1[S+]([O-])CC(F)(F)F (stereo not drawn) [Compound 38, 3-(2-fluoro-4-methyl-5-((2,2,2-trifluoroethyl)sulfinyl)phenyl)-4-methyl-5-(trifluoromethyl)isoxazole] | 100 | 100 | 100 |
| Cc1cc(C)c(-c2cc(C(F)(F)c3ccccc3)on2)cc1SCC(F)(F)F [Compound 40, 5-(difluoro(phenyl)methyl)-3-(2,4-dimethyl-5-((2,2,2-trifluoroethyl)thio)phenyl)isoxazole] | 33 | 100 | 89 |
| Cc1cc(Cl)c(-c2cc(C(F)(F)Cl)on2)cc1SCC(F)(F)F [Compound 43, 3-(2-chloro-4-methyl-5-((2,2,2-trifluoroethyl)thio)phenyl)-5-(chlorodifluoromethyl)isoxazole] | 100 | 100 | 100 |
| Cc1cc(Cl)c(-c2cc(C(F)(F)Cl)on2)cc1[S+]([O-])CC(F)(F)F (stereo not drawn) [Compound 44, 3-(2-chloro-4-methyl-5-((2,2,2-trifluoroethyl)sulfinyl)phenyl)-5-(chlorodifluoromethyl)isoxazole] | 100 | 100 | 100 |
| Cc1cc(C)c(-c2cc(C(F)F)on2)cc1SCC(F)(F)F [Compound 46, 5-(difluoromethyl)-3-(2,4-dimethyl-5-((2,2,2-trifluoroethyl)thio)phenyl)isoxazole] | 79 | 100 | 83 |
| Cc1cc(C)c([S+]([O-])CC(F)(F)F)cc1-c1cc(C(F)F)on1 (stereo not drawn) [Compound 47, 5-(difluoromethyl)-3-(2,4-dimethyl-5-((2,2,2-trifluoroethyl)sulfinyl)phenyl)isoxazole] | 51 | 100 | 80 |
| Cc1cc(C)c(-c2cc(C(F)(F)Cl)on2)cc1SCC(F)(F)F [Compound 49, 5-(chlorodifluoromethyl)-3-(2,4-dimethyl-5-((2,2,2-trifluoroethyl)thio)phenyl)isoxazole] | 6 | 100 | 0 |
| Cc1cc(C)c([S+]([O-])CC(F)(F)F)cc1-c1cc(C(F)(F)Cl)on1 (stereo not drawn) [Compound 50, 5-(chlorodifluoromethyl)-3-(2,4-dimethyl-5-((2,2,2-trifluoroethyl)sulfinyl)phenyl)isoxazole] | 96 | 100 | 97 |
| Cc1cc(Cl)c(-c2cc(C(F)(F)c3ccccc3)on2)cc1SCC(F)(F)F [Compound 52, 3-(2-chloro-4-methyl-5-((2,2,2-trifluoroethyl)thio)phenyl)-5-(difluoro(phenyl)methyl)isoxazole] | 61 | 100 | 32 |
| Cc1cc(Cl)c(-c2cc(C(F)(F)c3ccccc3)on2)cc1[S+]([O-])CC(F)(F)F (stereo not drawn) [Compound 53, 3-(2-chloro-4-methyl-5-((2,2,2-trifluoroethyl)sulfinyl)phenyl)-5-(difluoro(phenyl)methyl)isoxazole] | 64 | 100 | 90 |
| Cc1cc(Cl)c(-c2cc(C(F)F)on2)cc1SCC(F)(F)F [Compound 55, 3-(2-chloro-4-methyl-5-((2,2,2-trifluoroethyl)thio)phenyl)-5-(difluoromethyl)isoxazole] | 100 | 100 | 100 |
| Cc1cc(Cl)c(-c2cc(C(F)F)on2)cc1[S+]([O-])CC(F)(F)F (stereo not drawn) [Compound 56, 3-(2-chloro-4-methyl-5-((2,2,2-trifluoroethyl)sulfinyl)phenyl)-5-(difluoromethyl)isoxazole] | 100 | 100 | 100 |
| Cc1ccc(-c2cc(C(F)(F)F)on2)cc1SCC(F)(F)F [Compound A, reference compound] | 0 | 100 | 0 |
